Test results from PMC12525867, “Aromaticity Tuning in Biaryl Monophosphines and Their Derivatives” (Molecules, 2025).
≈ marks a conversion by molar mass, not a printed value.

Experiments:
Assay in all cases: Antibacterial screening, broth microdilution (MIC/MBC)
[1] = test system: M. luteus ATCC 10240; assay type: cell-based, Micrococcus luteus; settings: Micrococcus luteus, ATCC10240; M. luteus ATCC 10240; read-out: MBC
Method: (§1) The antimicrobial activities of a series of compounds 1–5 were tested through the utilization of seven reference species, encompassing both Gram-positive (Staphylococcus aureus ATCC 29213, Staphylococcus epidermidis ATCC 12228, Micrococcus luteus ATCC 10240) and Gram-negative (Escherichia coli ATCC 25922, Klebsiella pneumoniae ATCC 13883, Proteus mirabilis ATCC 12453, Acinetobacter baumannii ATCC 19606) bacteria as model microorganisms. For this purpose, microbial suspensions were prepared in sterile saline (0.85% NaCl) with an optical density of 0.5 McFarland standard, yielding a concentration of 150 × 10^6 CFU/mL (CFU, colony-forming units). All of the stock solutions of the tested compounds were dissolved in DMSO. Amoxicillin (Glentham Life Sciences Ltd., Corsham, UK) was used as a positive control.
(§2) The MIC values of the tested compounds were determined by serial twofold dilutions of 1–5 in Mueller Hinton Broth (MHB, Biomaxima, Lublin, Poland). The range of final 1–5 concentrations used was from 0.49 up to 1000 μg/mL, and for amoxicillin from 0.12 up to 250 μg/mL in the 96-well microtiter plates (Medlab, Raszyn, Poland), starting with 98 μL MHB and 2 μL bacterial inoculum added to each well. Positive controls consisted of 100 μL MHB in each well with the tested compounds at the same concentration range. The negative controls consisted of 100 μL of MHB only. Each set of tests and controls was established with three replicates. The microtiter plates were then subjected to an incubation period of 24 h at a temperature of 35 ± 2 °C. After incubation, the optical density of the microbial growth was measured at a wavelength of 600 nm using a microplate reader, the Biotek Elx800 (BioTek Instruments, Inc., Winooski, VT, USA). The MIC value was defined as the lowest concentration of the tested compound at which there was no visible growth of the tested microorganisms. The determination of the MIC values was achieved by employing the broth microdilution method, in accordance with the recommendations of the European Committee on Antimicrobial Susceptibility Testing (EUCAST). […] Then, the MHA plates were incubated overnight at 35 ± 2 °C. […] The MIC and MBC values were reported in μg/mL, according to the EUCAST reference.

[2] = test system: K. pneumoniae ATCC 13883; assay type: cell-based, Klebsiella pneumoniae; settings: Klebsiella pneumoniae, ATCC13883; K. pneumoniae ATCC 13883, MHB, 24 h, 35 °C; read-out: MIC
Method: as §1, §2

[3] = test system: A. baumannii ATCC 19606; assay type: cell-based, Acinetobacter baumannii; settings: Acinetobacter baumannii, ATCC19606; A. baumannii ATCC 19606, MHB, 24 h, 35 °C; read-out: MIC
Method: as §1, §2

[4] = test system: S. aureus ATCC 29213; assay type: cell-based, Staphylococcus aureus; settings: Staphylococcus aureus, ATCC29213; for MIC: S. aureus ATCC 29213, MHB, 24 h, 35 °C, read-out: MIC; for MBC: S. aureus ATCC 29213, read-out: MBC
Method: as §1, §2

Row | MIC [2] [µg/mL] | MIC [3] [µg/mL] | MIC [4] [µg/mL] | SMILES | MBC [1] [µg/mL] | MBC [4] [µg/mL]
1 | > 1000 | 1000 (≈ 1760 µM) | 15.6 to 31.2 (≈ 27.6 to 55.1 µM) | COc1cc(OC)c(-c2c(P(=O)(C3CCCCC3)C3CCCCC3)c(OC)c3ccccc3c2OC)c(OC)c1 [Compound 1, Dicyclohexyl[1,4-dimethoxy-3-(2,4,6-trimethoxyphenyl)naphthalen-2-yl]phosphane oxide] | 125 (≈ 221 µM) | > 1000
2 | > 1000 | 500 (≈ 987 µM) | 7.82 to 15.6 (≈ 15.4 to 30.9 µM) | COc1ccccc1-c1c(P(=O)(C2CCCCC2)C2CCCCC2)c(OC)c2ccccc2c1OC [Compound 2, Dicyclohexyl[1,4-dimethoxy-3-(2-methoxyphenyl)naphthalen-2-yl]phosphane oxide] | > 1000 | > 1000
3 | 500 (≈ 905 µM) | > 1000 | 62.5 to 125 (≈ 113 to 226 µM) | COc1cc(OC)c(-c2c(P(=O)(C3CCCCC3)C3CCCCC3)c(O)c3ccccc3c2OC)c(OC)c1 [Compound 3, 2-(Dicyclohexylphosphoryl)-4-methoxy-3-(2,4,6-trimethoxyphenyl)naphthalen-1-ol] | > 1000 | > 1000
